# Reference: patent US6013648A, “CB2 Receptor agonist compounds” (Sanofi, priority 1995, dated 2000)
# Tests used:
# human B cells = experiment: DNA synthesis rate (thymidine absorption) of human B cells co-stimulated with anti-Ig antibodies; assay type: cell-based; conditions: for increase in the thymidine absorption (DNA synthesis rate): nanomolar concentrations, human B cells co-stimulated with anti-Ig antibodies
# Description: It has been shown that, at nanomolar concentrations, compounds according to the invention, such as 3-(morpholin-4-ylmethyl)-5-methyl-6-(naphth-1-ylcarbonyl)-2,3-dihydropyrrolo[1,2,3-de]-1,4-benzoxazine methanesulfonate and 1-(2-(morpholin-4-yl)ethyl)-2-methyl-3-(naphth-1-ylcarbonyl)-7-methoxyindole, are capable of substantially increasing the DNA synthesis rate of human B cells co-stimulated with anti-Ig antibodies (increase of about 40% in the thymidine absorption).
# [1] = biological target: T1, peripheral human cannabinoid receptors (CB2) (Homo sapiens, UniProt P34972); experiment: affinity binding test, membranes from cell lines expressing CB2; conditions: in vitro binding; read-out: affinity for the CB2 receptor
# T1 construct: expressed in transfected cells; host or cells: cell line expressing CB2 (probably CHO; the print may tie CHO to CB1 only)
# Protocol: (§1) Affinity binding tests were carried out under the experimental conditions described by Devane et al. (Molecular Pharmacology (1988) 34, 605-613) with membranes derived from cell lines in which the CB1 and CB2 receptors were expressed (Munro et al., Nature (1993) 365, 561-565).
# [2] = biological target: T2, CB1 receptors expressed in CHO cells (Homo sapiens, UniProt P21554); experiment: forskolin-stimulated cAMP production / adenylate cyclase inhibition, CB1; assay type: cell-based
# T2 construct: expressed in transfected cells; host or cells: CHO cells
# Protocol: The tests were carried out under the experimental conditions described by Matsuda et al. (Nature, 1990, 346, 561-564).
# [3] = biological target: T3, human CB2 cannabinoid receptors (Homo sapiens, UniProt P34972); experiment: forskolin-stimulated cAMP production / adenylate cyclase inhibition, CB2; assay type: cell-based
# T3 construct: expressed in transfected cells; host or cells: probably CHO cells (the print may tie CHO to CB1 only)
# Protocol: Furthermore, the compounds according to the invention behave in vitro as specific agonists for the human CB2 cannabinoid receptors relative to the CB1 receptors expressed in CHO cells. In fact, by binding specifically to the CB2 receptors, they reduce forskolin-stimulated cAMP production by inhibiting the adenylate cyclase. The tests were carried out under the experimental conditions described by Matsuda et al. (Nature, 1990, 346, 561-564).
# By way of example, the following adenylate cyclase 50% inhibitory concentrations, IC50, were calculated for 1-(2-(morpholin-4-yl)ethyl)-2-methyl-3-(4-bromonaphth-1-ylcarbonyl)-7-methoxyindole: […]
# [4] = biological target: T4, central human receptors (CB1) (Homo sapiens, UniProt P21554); experiment: affinity binding test, membranes from cell lines expressing CB1
# T4 construct: expressed in transfected cells; host or cells: Chinese hamster ovary (CHO) cells
# Protocol: as §1
# T3 sequence (P34972 whole entry): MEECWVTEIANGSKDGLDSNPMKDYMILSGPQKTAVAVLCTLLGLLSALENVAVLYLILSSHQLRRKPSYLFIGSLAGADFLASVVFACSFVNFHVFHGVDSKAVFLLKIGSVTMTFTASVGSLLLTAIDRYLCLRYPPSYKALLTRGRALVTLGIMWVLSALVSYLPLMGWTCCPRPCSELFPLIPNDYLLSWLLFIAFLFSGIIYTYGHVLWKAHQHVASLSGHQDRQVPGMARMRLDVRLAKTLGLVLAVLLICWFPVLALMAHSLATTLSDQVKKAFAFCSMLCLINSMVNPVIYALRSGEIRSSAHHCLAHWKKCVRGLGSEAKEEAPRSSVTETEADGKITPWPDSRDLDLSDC
# T1 sequence (P34972 whole entry): as above
# T2 sequence (P21554 whole entry): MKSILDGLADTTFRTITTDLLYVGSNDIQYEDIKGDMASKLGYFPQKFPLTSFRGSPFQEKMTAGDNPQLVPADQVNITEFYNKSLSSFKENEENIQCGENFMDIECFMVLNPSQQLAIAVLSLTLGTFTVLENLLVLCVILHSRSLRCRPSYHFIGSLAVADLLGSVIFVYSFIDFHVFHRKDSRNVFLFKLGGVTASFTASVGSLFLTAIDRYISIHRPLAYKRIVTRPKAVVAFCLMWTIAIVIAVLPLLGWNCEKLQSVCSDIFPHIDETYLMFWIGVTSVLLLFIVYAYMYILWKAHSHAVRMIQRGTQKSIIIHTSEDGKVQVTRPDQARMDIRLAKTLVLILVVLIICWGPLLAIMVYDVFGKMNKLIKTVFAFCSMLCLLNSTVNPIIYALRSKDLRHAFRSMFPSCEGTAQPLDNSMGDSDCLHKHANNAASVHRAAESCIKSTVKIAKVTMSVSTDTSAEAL
# T4 sequence (P21554 whole entry): as above
structure (smiles),measurement,setting,value
"CS(=O)(=O)O.Cc1c(C(=O)c2cccc3ccccc23)c2cccc3c2n1C(CN1CCOCC1)CO3 (single isomer, unassigned) [3-(morpholin-4-ylmethyl)-5-methyl-6-(naphth-1-ylcarbonyl)-2,3-dihydropyrrolo[1,2,3-de]-1,4-benzoxazine methanesulfonate]",increase in the thymidine absorption (DNA synthesis rate),human B cells,about 40%
"COc1cccc2c(C(=O)c3cccc4ccccc34)c(C)n(CCN3CCOCC3)c12 [Compound 6, 1-(2-(morpholin-4-yl)ethyl)-2-methyl-3-(naphth-1-ylcarbonyl)-7-methoxyindole]",increase in the thymidine absorption (DNA synthesis rate),human B cells,about 40%
"COc1cccc2c(C(=O)c3ccc(Br)c4ccccc34)c(C)n(CCN3CCOCC3)c12 [Compound 22, 1-(2-(Morpholin-4-yl)ethyl)-2-methyl-3-(4-bromonaphth-1-ylcarbonyl)-7-methoxyindole]",Ki,[1],1.8 nM
same,IC50,[2],1000 nM
same,IC50,[3],1 nM
same,Ki,[4],> 1000 nM
"Cc1c(C(=O)NN2CCCCC2)nn(-c2ccc(Cl)cc2Cl)c1-c1ccc(Cl)cc1 [SR 141716A, reference compound]",blocking effect,"human B cells; wide concentration range, with CP 55940 (or Δ^9 -THC or WIN 55212-2) at 10^-9 M",no blocking effect was observed
